From US20100285959A1, “HERBICIDAL MIXTURES” (priority 2006, published 2010)

Columns and labels:
[1] = system: alexandergrass (BRAPL); test: Test 11 field trial, preemergence; type: in vivo, Brachiaria plantaginea; parameters: scale not given here
From the text: (§1) Corn seeds (hybrid ‘Pioneer 3041’) were planted in mid spring season, 5 cm deep in a clay soil having 2.6% organic matter and a pH of 5.6. Plots were 8 m long by 1.5 m wide with rows spaced 80 cm apart. Seeds were spaced 15 cm apart within the rows. The field was managed using conventional tillage practices. […] Treatments consisted of Compound 2 or
(§2) Goosegrass was not evaluated 16 or 91 days after application.

[2] = system: velvetleaf (ABUTH); test: Test 5 field trial, postemergence; type: in vivo, Abutilon theophrasti; details: atrazine 1120, glufosinate 470 or glyphosate 1120 g a.i./ha alone
From the text: (§3) Corn seeds (hybrid ‘Pioneer 38H69’) were planted in mid spring season, 5.1 cm deep in a silty clay loam soil having 3% organic matter and a pH of 6.5. Plots were 9.1 m long by 3.0 m wide with rows spaced 76 cm apart. The field was managed using conventional tillage practices. […] All treatments included a surfactant except glufosinate treatments, both alone and in combination. […] Results are summarized in Table 5 and are the means of the three replicates.

[3] = system: giant foxtail (SETFA); test: Test 1 field trial, preemergence; type: in vivo, Setaria faberi; details: g a.i./ha: Atrazine 1680, S-Metolachlor 1870
From the text: (§4) Corn seeds (hybrid ‘Pioneer 34N43’) were planted in mid spring season, 3.8 cm deep in a silt loam soil having 4.6% organic matter and a pH of 6. Plots were 10.7 m long by 1.5 m wide with rows spaced 76 cm apart. Seeds were spaced 18 cm apart within the rows. The field was managed using conventional tillage practices. […] Results are summarized in Table 1 and are the means of the three replicates. […] Colby's Equation (Colby, S. R. “Calculating Synergistic and Antagonistic Responses of Herbicide Combinations,” Weeds, 15(1), pp 20-22 (1967)) calculates the expected additive effect of herbicidal mixtures, and for two active ingredients is of the form:
(§5) Pa+b=Pa+Pb−(PaPb/100) • wherein Pa+b is the percentage effect of the mixture expected from additive contribution of the individual components, • Pa is the observed percentage effect of the first active ingredient at the same use rate as in the mixture, and • Pb is the observed percentage effect of the second active ingredient at the same use rate as in the mixture.

[4] = system: yellow foxtail (SETLU); test: Test 5 field trial, postemergence; type: in vivo, Setaria glauca; details: atrazine 1120, glufosinate 470 or glyphosate 1120 g a.i./ha alone
From the text: as §3

[5] = system: ivyleaf morningglory (IPOHE); test: Test 10 field trial, preemergence; type: in vivo, Ipomoea hederacea; details: 28 DAA; g a.i./ha: Cpd 2 100, Atrazine 1680, S-Metolachlor 1870
From the text: Corn seeds (hybrid ‘Pioneer 33P65 RR’) were planted in mid spring season, 2.5 cm deep in a silt loam soil. Plots were 9.1 m long by 3.0 m wide with rows spaced 76 cm apart. The field was managed using conventional tillage practices. […] Results are the means of the three replicates.

[6] = system: common lambsquarters (CHEAL); test: Test 5 field trial, postemergence; type: in vivo, Chenopodium album; details: atrazine 1120, glufosinate 470 or glyphosate 1120 g a.i./ha alone
From the text: as §3

[7] = system: redroot pigweed (AMARE); test: Test 6 field trial, postemergence; type: in vivo, Amaranthus retroflexus; details: 1120 g a.i./ha
From the text: Corn seeds (hybrid ‘Pioneer 35Y62’) were planted in mid spring season, 3.8 cm deep in a silt loam soil having 4% organic matter and a pH of 5.8. Plots were 10.7 m long by 1.5 m wide with rows spaced 76 cm apart. Seeds were spaced 18 cm apart within the rows. The field was managed using conventional tillage practices. […] All treatments included a surfactant except glufosinate treatments, both alone and in combination. […] Results are summarized in Table 6 and are the means of the three replicates.

[8] = system: Brazilian crabgrass (DIGHO); test: Test 11 field trial, preemergence; type: in vivo, Digitaria horizontalis; parameters: scale not given here
From the text: as §1, §2

[9] = system: Ipomoea grandiflora (IPOGF); test: Test 11 field trial, preemergence; type: in vivo
From the text: as §1, §2

[10] = system: Surinam grass (BRADC); test: Test 11 field trial, preemergence; type: in vivo, Brachiaria decumbens; parameters: scale not given here
From the text: as §1, §2

[11] = system: common lambsquarters (CHEAL); test: Test 1 field trial, preemergence; type: in vivo, Chenopodium album; details: g a.i./ha: Atrazine 1680, S-Metolachlor 1870
From the text: as §4, §5

[12] = system: corn (ZEAMD); test: Test 8 field trial, preemergence; type: in vivo, Zea mays ssp. indentata; details: g a.i./ha: Cpd 2 100, Atrazine 1680, S-Metolachlor 1870
From the text: Corn seeds (hybrid ‘Pioneer 31G96’) were planted in mid spring season, 3.8 cm deep in a clay loam soil having 2% organic matter and a pH of 6.6. Plots were 6.1 m long by 3.0 m wide with rows spaced 76 cm apart. Seeds were spaced 15 cm apart within the rows. The field was managed using conventional tillage practices. […] A few of the weed species could not be evaluated at every timing. […] Results are the means of the three replicates.

[13] = system: redroot pigweed (AMARE); test: Test 1 field trial, preemergence; type: in vivo, Amaranthus retroflexus; details: g a.i./ha: Atrazine 1680, S-Metolachlor 1870
From the text: as §4, §5

[14] = 16 DAA, atrazine 1500 or metolachlor 2500 g a.i./ha alone
[15] = 30 DAA, atrazine 1500 or metolachlor 2500 g a.i./ha alone
[16] = 44 DAA, atrazine 1500 or metolachlor 2500 g a.i./ha alone
[17] = 62 DAA, atrazine 1500 or metolachlor 2500 g a.i./ha alone
[18] = 91 DAA, atrazine 1500 or metolachlor 2500 g a.i./ha alone
[19] = 16 DAA, Cpd 2/Cpd 1 at 62 g a.i./ha, alone or + atrazine 1500 or metolachlor 2500
[20] = 16 DAA, Cpd 2/Cpd 1 at 125 g a.i./ha, alone or + atrazine 1500 or metolachlor 2500
[21] = 30 DAA, Cpd 2/Cpd 1 at 62 g a.i./ha, alone or + atrazine 1500 or metolachlor 2500
[22] = 30 DAA, Cpd 2/Cpd 1 at 125 g a.i./ha, alone or + atrazine 1500 or metolachlor 2500
[23] = 44 DAA, Cpd 2/Cpd 1 at 62 g a.i./ha, alone or + atrazine 1500 or metolachlor 2500
[24] = 44 DAA, Cpd 2/Cpd 1 at 125 g a.i./ha, alone or + atrazine 1500 or metolachlor 2500
[25] = 62 DAA, Cpd 2/Cpd 1 at 62 g a.i./ha, alone or + atrazine 1500 or metolachlor 2500
[26] = 62 DAA, Cpd 2/Cpd 1 at 125 g a.i./ha, alone or + atrazine 1500 or metolachlor 2500
[27] = 91 DAA, Cpd 2/Cpd 1 at 62 g a.i./ha, alone or + atrazine 1500 or metolachlor 2500
[28] = 91 DAA, Cpd 2/Cpd 1 at 125 g a.i./ha, alone or + atrazine 1500 or metolachlor 2500

SMILES: CCNc1nc(Cl)nc(NC(C)C)n1 [Atrazine, atrazine, reference compound]
- BRAPL Obs [1, 14]: 75
- BRAPL Obs [1, 15]: 50
- BRAPL Obs [1, 16]: 50
- BRAPL Obs [1, 17]: 0
- BRAPL Obs [1, 18]: 0
- ABUTH Obs ([2]; 16 DAA): 40%
- ABUTH Obs ([2]; 31 DAA): 13%
- SETFA Obs ([3]; 28 DAA): 93
- SETFA Obs ([3]; 56 DAA): 0
- SETLU Obs ([4]; 16 DAA): 0%
- SETLU Obs ([4]; 31 DAA): 0%
- IPOHE Obs [5]: 37%
- CHEAL Obs ([6]; 16 DAA): 79%
- CHEAL Obs ([6]; 31 DAA): 70%
- AMARE Obs ([7]; 14 DAA): 100%
- AMARE Obs ([7]; 28 DAA): 100%
- DIGHO Obs [8, 14]: 60
- DIGHO Obs [8, 15]: 40
- DIGHO Obs [8, 16]: 20
- DIGHO Obs [8, 17]: 0
- DIGHO Obs [8, 18]: 0
- IPOGF Obs [9, 14]: 97
- IPOGF Obs [9, 15]: 97
- IPOGF Obs [9, 16]: 70
- IPOGF Obs ([9]; 62 DAA, 1500 g a.i./ha, scale 0 to 100): 50
- IPOGF Obs ([9]; 91 DAA, 1500 g a.i./ha, scale 0 to 100): 40
- BRADC Obs [10, 14]: 40
- BRADC Obs [10, 15]: 20
- BRADC Obs [10, 16]: 0
- BRADC Obs [10, 17]: 0
- BRADC Obs [10, 18]: 0
- CHEAL Obs ([11]; 28 DAA): 100
- CHEAL Obs ([11]; 56 DAA): 100
- ZEAMD Obs ([12]; 19 DAA): 5%
- ZEAMD Obs ([12]; 29 DAA): 2%
- ZEAMD Obs ([12]; 56 DAA): 3%
- AMARE Obs ([13]; 28 DAA): 100
- AMARE Obs ([13]; 56 DAA): 93

SMILES: O=C(O)CNCP(=O)(O)O [Glyphosate]
- ABUTH Obs ([2]; 16 DAA): 84%
- ABUTH Obs ([2]; 31 DAA): 84%
- SETLU Obs ([4]; 16 DAA): 100%
- SETLU Obs ([4]; 31 DAA): 98%
- CHEAL Obs ([6]; 16 DAA): 100%
- CHEAL Obs ([6]; 31 DAA): 97%
- AMARE Obs ([7]; 14 DAA): 100%
- AMARE Obs ([7]; 28 DAA): 100%

SMILES: Nc1nc(C2CC2)nc(C(=O)O)c1Cl [Compound 1, 6-amino-5-chloro-2-cyclopropyl-4-pyrimidinecarboxylic acid]
- BRAPL Obs [1, 19]: 40
- BRAPL Obs [1, 20]: 40
- BRAPL Obs [1, 21]: 20
- BRAPL Obs [1, 22]: 60
- BRAPL Obs [1, 23]: 0
- BRAPL Obs [1, 24]: 40
- BRAPL Obs [1, 25]: 0
- BRAPL Obs [1, 26]: 0
- BRAPL Obs [1, 27]: 0
- BRAPL Obs [1, 28]: 0
- DIGHO Obs [8, 19]: 0
- DIGHO Obs [8, 20]: 0
- DIGHO Obs [8, 21]: 0
- DIGHO Obs [8, 22]: 20
- DIGHO Obs [8, 23]: 0
- DIGHO Obs [8, 24]: 20
- DIGHO Obs [8, 25]: 0
- DIGHO Obs [8, 26]: 0
- DIGHO Obs [8, 27]: 0
- DIGHO Obs [8, 28]: 0
- IPOGF Obs [9, 19]: 20
- IPOGF Obs [9, 20]: 40
- IPOGF Obs [9, 21]: 40
- IPOGF Obs [9, 22]: 80
- IPOGF Obs ([9]; 44 DAA, 62 g a.i./ha, scale 0 to 100): 60
- IPOGF Obs ([9]; 44 DAA, 125 g a.i./ha, scale 0 to 100): 80
- IPOGF Obs ([9]; 62 DAA, 62 g a.i./ha, scale 0 to 100): 0
- IPOGF Obs ([9]; 62 DAA, 125 g a.i./ha, scale 0 to 100): 75
- IPOGF Obs ([9]; 91 DAA, 62 g a.i./ha, scale 0 to 100): 0
- IPOGF Obs ([9]; 91 DAA, 125 g a.i./ha, scale 0 to 100): 60
- BRADC Obs [10, 19]: 20
- BRADC Obs [10, 20]: 40
- BRADC Obs [10, 21]: 20
- BRADC Obs [10, 22]: 50
- BRADC Obs [10, 23]: 0
- BRADC Obs [10, 24]: 40
- BRADC Obs [10, 25]: 0
- BRADC Obs [10, 26]: 0
- BRADC Obs [10, 27]: 0
- BRADC Obs [10, 28]: 0

SMILES: CCc1cccc(C)c1N(C(=O)CCl)[C@@H](C)COC [S-Metolachlor, S-metolachlor, reference compound]
- SETFA Obs ([3]; 28 DAA): 57
- SETFA Obs ([3]; 56 DAA): 100
- IPOHE Obs [5]: 23%
- CHEAL Obs ([11]; 28 DAA): 95
- CHEAL Obs ([11]; 56 DAA): 23
- ZEAMD Obs ([12]; 19 DAA): 0%
- ZEAMD Obs ([12]; 29 DAA): 3%
- ZEAMD Obs ([12]; 56 DAA): 5%
- AMARE Obs ([13]; 28 DAA): 100
- AMARE Obs ([13]; 56 DAA): 80
